Measurements from ChEMBL document CHEMBL4390652, “Design, biological evaluation and X-ray crystallography of nanomolar multifunctional ligands targeting simultaneously acetylcholinesterase and glycogen synthase kinase-3” (Eur J Med Chem, 2019).

What was measured:
[1] = molecular target: RAC-gamma serine/threonine-protein kinase (Homo sapiens) (UniProt Q9Y243); assay: Binding affinity to wild-type human partial length AKT3 expressed in bacterial expression system assessed as residual binding level at 10 uM by Kinomescan method relative to control
RAC-gamma serine/threonine-protein kinase (Homo sapiens), sequence (Q9Y243 whole entry, the tested form may be a part): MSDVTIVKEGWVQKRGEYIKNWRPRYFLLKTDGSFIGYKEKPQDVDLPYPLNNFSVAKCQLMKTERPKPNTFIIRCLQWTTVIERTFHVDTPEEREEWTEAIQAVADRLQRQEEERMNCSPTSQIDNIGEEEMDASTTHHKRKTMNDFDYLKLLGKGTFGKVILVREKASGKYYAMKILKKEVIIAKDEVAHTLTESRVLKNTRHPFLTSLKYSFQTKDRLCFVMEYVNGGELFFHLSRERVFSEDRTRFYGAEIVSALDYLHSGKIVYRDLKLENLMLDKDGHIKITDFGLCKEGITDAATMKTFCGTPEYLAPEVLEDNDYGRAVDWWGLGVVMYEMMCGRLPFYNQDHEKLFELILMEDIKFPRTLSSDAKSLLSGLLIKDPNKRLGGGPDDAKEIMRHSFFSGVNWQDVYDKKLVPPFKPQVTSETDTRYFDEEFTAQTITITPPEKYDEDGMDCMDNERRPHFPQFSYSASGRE

[2] = molecular target: Ephrin type-B receptor 3 (Homo sapiens) (UniProt P54753); assay: Binding affinity to wild-type human partial length EPHB3 (Q599 to T928 residues) expressed in bacterial expression system assessed as residual binding level at 10 uM by Kinomescan method relative to control
[3] = molecular target: Tyrosine-protein kinase Srms (Homo sapiens) (UniProt Q9H3Y6); assay: Binding affinity to wild-type human partial length SRMS (L208 to P488 residues) expressed in mammalian expression system assessed as residual binding level at 10 uM by Kinomescan method relative to control
[4] = molecular target: Fibroblast growth factor receptor 4 (Homo sapiens) (UniProt P22455); assay: Binding affinity to wild-type human partial length FGFR4 (G402 to E713 residues) expressed in bacterial expression system assessed as residual binding level at 10 uM by Kinomescan method relative to control
[5] = molecular target: Casein kinase I isoform epsilon (Homo sapiens) (UniProt P49674); assay: Binding affinity to wild-type human full length CSNK1E (M1 to K416 residues) expressed in bacterial expression system assessed as residual binding level at 10 uM by Kinomescan method relative to control
[6] = molecular target: Serine/threonine-protein kinase ULK2 (Homo sapiens) (UniProt Q8IYT8); assay: Binding affinity to wild-type human partial length ULK2 (M1 to S301 residues) expressed in mammalian expression system assessed as residual binding level at 10 uM by Kinomescan method relative to control
[7] = tested on: Phosphatidylinositol 4,5-bisphosphate 3-kinase catalytic subunit alpha isoform (Homo sapiens), P42336 [E542K]; assay: Binding affinity to human partial length PIK3CA E542K mutant (R108 to N1068 residues) expressed in mammalian expression system assessed as residual binding level at 10 uM by Kinomescan method relative to control
[8] = molecular target: 5'-AMP-activated protein kinase catalytic subunit alpha-2 (Homo sapiens) (UniProt P54646); assay: Binding affinity to wild-type human partial length AMPK alpha2 (M1 to E306 residues) expressed in bacterial expression system assessed as residual binding level at 10 uM by Kinomescan method relative to control
5'-AMP-activated protein kinase catalytic subunit alpha-2 (Homo sapiens), sequence (P54646 whole entry, looked up, the tested form may be a part): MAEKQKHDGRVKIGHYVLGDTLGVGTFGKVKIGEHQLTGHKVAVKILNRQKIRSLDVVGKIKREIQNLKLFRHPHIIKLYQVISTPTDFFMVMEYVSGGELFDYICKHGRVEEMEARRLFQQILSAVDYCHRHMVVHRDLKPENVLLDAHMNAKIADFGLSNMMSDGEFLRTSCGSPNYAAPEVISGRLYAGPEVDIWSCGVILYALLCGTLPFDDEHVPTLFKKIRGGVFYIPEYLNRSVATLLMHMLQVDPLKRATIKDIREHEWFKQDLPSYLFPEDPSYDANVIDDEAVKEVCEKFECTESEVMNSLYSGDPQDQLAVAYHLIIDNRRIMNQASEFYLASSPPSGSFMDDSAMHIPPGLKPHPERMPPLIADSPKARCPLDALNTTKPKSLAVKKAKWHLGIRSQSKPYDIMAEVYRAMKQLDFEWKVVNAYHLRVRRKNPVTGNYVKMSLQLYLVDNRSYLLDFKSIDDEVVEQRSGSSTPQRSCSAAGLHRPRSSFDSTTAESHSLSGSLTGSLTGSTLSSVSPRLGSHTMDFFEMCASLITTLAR

[9] = molecular target: Calcium/calmodulin-dependent protein kinase type IV (Homo sapiens) (UniProt Q16566); assay: Binding affinity to wild-type human partial length CAMK4 (A22 to A322 residues) expressed in bacterial expression system assessed as residual binding level at 10 uM by Kinomescan method relative to control
[10] = tested on: Tyrosine-protein kinase ABL1 (Homo sapiens), P00519 [E255K]; assay: Binding affinity to human phosphorylated ABL1 E255K mutant (S229 to K512 residues) expressed in mammalian expression system assessed as residual binding level at 10 uM by Kinomescan method relative to control
[11] = molecular target: Serine/threonine-protein kinase D1 (Homo sapiens) (UniProt Q15139); assay: Binding affinity to wild-type human partial length PRKD1 (G551 to E870 residues) expressed in bacterial expression system assessed as residual binding level at 10 uM by Kinomescan method relative to control
[12] = tested on: Phosphatidylinositol 4,5-bisphosphate 3-kinase catalytic subunit alpha isoform (Homo sapiens), P42336 [E545A]; assay: Binding affinity to human partial length PIK3CA E545A mutant (R108 to N1068 residues) expressed in mammalian expression system assessed as residual binding level at 10 uM by Kinomescan method relative to control
[13] = molecular target: Myosin light chain kinase family member 4 (Homo sapiens) (UniProt Q86YV6); assay: Binding affinity to wild-type human partial length MYLK4 (V79 to S380 residues) expressed in bacterial expression system assessed as residual binding level at 10 uM by Kinomescan method relative to control
[14] = molecular target: Serine/threonine-protein kinase ULK3 (Homo sapiens) (UniProt Q6PHR2); assay: Binding affinity to wild-type human partial length ULK3 (M1 to Q290 residues) expressed in mammalian expression system assessed as residual binding level at 10 uM by Kinomescan method relative to control
[15] = molecular target: Phosphorylase b kinase gamma catalytic chain, liver/testis isoform (Homo sapiens) (UniProt P15735); assay: Binding affinity to wild-type human partial length PHKG2 (M1 to W300 residues) expressed in bacterial expression system assessed as residual binding level at 10 uM by Kinomescan method relative to control
Phosphorylase b kinase gamma catalytic chain, liver/testis isoform (Homo sapiens), sequence (P15735 whole entry, the tested form may be a part, canonical isoform): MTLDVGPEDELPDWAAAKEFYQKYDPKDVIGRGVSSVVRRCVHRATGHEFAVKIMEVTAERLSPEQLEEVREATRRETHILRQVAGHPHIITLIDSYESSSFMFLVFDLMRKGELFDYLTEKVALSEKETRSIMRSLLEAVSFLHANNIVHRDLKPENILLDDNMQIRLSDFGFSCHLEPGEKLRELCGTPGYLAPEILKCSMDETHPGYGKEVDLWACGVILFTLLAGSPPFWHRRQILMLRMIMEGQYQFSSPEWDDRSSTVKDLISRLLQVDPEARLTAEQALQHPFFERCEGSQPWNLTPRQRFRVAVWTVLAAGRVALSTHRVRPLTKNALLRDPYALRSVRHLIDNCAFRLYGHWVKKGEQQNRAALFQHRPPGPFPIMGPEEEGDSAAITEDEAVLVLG

[16] = molecular target: High affinity nerve growth factor receptor (Homo sapiens) (UniProt P04629); assay: Binding affinity to wild-type human partial length TRKA (G475 to G790 residues) expressed in mammalian expression system assessed as residual binding level at 10 uM by Kinomescan method relative to control
[17] = molecular target: Aurora kinase C (Homo sapiens) (UniProt Q9UQB9); assay: Binding affinity to wild-type human full length AURKC (M1 to S275 residues) expressed in bacterial expression system assessed as residual binding level at 10 uM by Kinomescan method relative to control
Aurora kinase C (Homo sapiens), sequence (Q9UQB9 whole entry, the tested form may be a part): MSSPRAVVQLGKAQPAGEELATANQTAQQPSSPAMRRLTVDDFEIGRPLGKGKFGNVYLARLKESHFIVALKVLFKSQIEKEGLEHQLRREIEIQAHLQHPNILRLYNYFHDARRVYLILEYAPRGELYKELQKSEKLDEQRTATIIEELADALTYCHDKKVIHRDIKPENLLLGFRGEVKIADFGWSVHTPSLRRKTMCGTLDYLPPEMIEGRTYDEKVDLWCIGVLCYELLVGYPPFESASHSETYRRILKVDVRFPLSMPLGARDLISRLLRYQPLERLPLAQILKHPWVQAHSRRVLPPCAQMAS

[18] = molecular target: Proto-oncogene tyrosine-protein kinase ROS (Homo sapiens) (UniProt P08922); assay: Binding affinity to wild-type human partial length ROS1 (A1921 to N2240 residues) expressed in bacterial expression system assessed as residual binding level at 10 uM by Kinomescan method relative to control
Proto-oncogene tyrosine-protein kinase ROS (Homo sapiens), sequence (P08922 whole entry, the tested form may be a part): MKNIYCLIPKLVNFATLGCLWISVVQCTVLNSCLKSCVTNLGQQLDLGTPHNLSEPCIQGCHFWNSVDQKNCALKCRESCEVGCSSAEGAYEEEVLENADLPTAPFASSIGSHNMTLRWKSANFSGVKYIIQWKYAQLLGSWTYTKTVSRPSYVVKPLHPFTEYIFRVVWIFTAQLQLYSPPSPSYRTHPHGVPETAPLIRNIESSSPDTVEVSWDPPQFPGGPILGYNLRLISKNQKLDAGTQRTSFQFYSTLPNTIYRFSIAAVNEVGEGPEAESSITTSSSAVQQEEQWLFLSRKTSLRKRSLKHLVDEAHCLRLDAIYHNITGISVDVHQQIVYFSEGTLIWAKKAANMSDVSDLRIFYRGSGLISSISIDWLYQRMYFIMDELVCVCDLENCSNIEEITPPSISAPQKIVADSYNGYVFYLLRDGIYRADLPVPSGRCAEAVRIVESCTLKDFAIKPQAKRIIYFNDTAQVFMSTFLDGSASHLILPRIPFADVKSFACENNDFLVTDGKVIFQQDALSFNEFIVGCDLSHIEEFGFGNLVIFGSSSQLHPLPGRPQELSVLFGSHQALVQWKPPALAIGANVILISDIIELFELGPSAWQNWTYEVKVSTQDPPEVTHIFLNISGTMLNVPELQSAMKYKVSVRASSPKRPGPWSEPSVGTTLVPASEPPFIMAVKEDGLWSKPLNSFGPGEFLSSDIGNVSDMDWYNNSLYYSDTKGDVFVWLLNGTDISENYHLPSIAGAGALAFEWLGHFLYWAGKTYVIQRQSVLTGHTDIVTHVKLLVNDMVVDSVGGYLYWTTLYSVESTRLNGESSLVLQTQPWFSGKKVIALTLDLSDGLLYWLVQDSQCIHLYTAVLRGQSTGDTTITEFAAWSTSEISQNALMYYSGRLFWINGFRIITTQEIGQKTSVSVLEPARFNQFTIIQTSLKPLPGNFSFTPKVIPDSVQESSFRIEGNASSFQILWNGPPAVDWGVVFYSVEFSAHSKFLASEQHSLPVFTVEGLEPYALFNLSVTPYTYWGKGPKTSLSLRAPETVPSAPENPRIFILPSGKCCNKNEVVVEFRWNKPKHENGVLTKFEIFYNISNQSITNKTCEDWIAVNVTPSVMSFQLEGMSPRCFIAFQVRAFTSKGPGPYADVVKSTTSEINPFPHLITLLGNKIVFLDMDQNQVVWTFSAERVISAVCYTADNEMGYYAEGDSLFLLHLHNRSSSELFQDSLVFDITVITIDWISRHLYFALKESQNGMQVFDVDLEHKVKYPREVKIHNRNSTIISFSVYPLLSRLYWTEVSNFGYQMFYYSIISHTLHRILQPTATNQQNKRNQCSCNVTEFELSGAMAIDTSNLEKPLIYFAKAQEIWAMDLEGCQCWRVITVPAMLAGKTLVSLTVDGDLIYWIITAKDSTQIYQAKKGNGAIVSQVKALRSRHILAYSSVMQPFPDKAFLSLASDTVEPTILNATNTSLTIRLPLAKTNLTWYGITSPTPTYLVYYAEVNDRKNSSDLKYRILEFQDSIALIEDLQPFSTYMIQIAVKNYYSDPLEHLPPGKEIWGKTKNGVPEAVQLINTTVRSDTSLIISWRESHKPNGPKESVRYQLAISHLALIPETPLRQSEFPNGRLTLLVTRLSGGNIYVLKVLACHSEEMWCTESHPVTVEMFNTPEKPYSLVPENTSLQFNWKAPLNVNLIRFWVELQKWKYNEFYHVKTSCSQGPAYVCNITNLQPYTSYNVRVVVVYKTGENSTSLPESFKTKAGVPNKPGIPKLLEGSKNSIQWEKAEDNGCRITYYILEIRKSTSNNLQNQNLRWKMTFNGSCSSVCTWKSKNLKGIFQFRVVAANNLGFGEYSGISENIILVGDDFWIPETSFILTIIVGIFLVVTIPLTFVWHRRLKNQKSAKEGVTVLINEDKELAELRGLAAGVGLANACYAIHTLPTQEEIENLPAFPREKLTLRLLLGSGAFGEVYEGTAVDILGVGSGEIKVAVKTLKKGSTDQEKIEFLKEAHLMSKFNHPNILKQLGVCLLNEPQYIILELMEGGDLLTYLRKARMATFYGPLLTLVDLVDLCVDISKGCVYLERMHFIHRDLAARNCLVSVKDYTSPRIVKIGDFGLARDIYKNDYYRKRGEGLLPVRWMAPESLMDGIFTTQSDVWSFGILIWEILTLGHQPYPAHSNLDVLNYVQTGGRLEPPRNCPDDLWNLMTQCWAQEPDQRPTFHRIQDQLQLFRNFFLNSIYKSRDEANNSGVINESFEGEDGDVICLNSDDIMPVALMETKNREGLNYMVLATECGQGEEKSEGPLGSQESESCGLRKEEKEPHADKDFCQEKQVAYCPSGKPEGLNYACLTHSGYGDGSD

[19] = tested on: Mast/stem cell growth factor receptor Kit (Homo sapiens), P10721 [D816V]; assay: Binding affinity to human partial length KIT D816V mutant (I571 to D952 residues) expressed in bacterial expression system assessed as residual binding level at 10 uM by Kinomescan method relative to control
Mast/stem cell growth factor receptor Kit (Homo sapiens), P10721 [D816V], sequence (P10721 whole entry D816V, the tested form may be a part): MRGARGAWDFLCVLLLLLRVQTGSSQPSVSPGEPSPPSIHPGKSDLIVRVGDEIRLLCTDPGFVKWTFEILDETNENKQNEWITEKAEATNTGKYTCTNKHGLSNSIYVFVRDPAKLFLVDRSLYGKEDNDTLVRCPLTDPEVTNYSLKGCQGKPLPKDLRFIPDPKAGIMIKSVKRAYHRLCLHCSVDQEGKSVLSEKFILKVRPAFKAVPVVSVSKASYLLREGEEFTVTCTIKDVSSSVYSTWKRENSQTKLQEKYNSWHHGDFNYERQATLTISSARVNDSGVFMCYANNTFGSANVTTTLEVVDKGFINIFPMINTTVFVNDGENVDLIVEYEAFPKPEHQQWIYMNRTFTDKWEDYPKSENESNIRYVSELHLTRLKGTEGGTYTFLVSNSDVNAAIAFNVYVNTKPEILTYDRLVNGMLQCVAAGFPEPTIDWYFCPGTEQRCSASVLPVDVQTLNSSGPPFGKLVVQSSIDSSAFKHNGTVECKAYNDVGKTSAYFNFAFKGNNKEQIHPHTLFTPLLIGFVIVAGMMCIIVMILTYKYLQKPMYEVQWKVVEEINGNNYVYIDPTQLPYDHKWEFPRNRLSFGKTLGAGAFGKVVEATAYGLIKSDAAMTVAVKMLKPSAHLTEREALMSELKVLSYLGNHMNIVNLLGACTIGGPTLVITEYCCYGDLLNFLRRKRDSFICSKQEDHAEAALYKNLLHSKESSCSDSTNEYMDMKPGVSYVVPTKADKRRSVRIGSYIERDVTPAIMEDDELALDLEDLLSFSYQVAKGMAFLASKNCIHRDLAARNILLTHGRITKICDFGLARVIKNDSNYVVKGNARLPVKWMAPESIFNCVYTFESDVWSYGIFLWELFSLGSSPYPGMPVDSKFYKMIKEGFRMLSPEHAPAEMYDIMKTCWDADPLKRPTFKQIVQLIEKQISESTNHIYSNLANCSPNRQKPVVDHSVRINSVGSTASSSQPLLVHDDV

[20] = molecular target: Serine/threonine-protein kinase 33 (Homo sapiens) (UniProt Q9BYT3); assay: Binding affinity to wild-type human full length STK33 (M1 to L514 residues) expressed in bacterial expression system assessed as residual binding level at 10 uM by Kinomescan method relative to control
[21] = molecular target: Serine/threonine-protein kinase tousled-like 2 (Homo sapiens) (UniProt Q86UE8); assay: Binding affinity to wild-type human partial length TLK2 (E424 to N749 residues) expressed in bacterial expression system assessed as residual binding level at 10 uM by Kinomescan method relative to control
[22] = molecular target: Serine/threonine-protein kinase 26 (Homo sapiens) (UniProt Q9P289); assay: Binding affinity to wild-type human full length MST4 (M1 to P416 residues) expressed in mammalian expression system assessed as residual binding level at 10 uM by Kinomescan method relative to control
[23] = molecular target: Serine/threonine-protein kinase/endoribonuclease IRE1 (Homo sapiens) (UniProt O75460); assay: Binding affinity to wild-type human partial length ERN1 (S551 to E852 residues) expressed in mammalian expression system assessed as residual binding level at 10 uM by Kinomescan method relative to control
[24] = molecular target: Angiopoietin-1 receptor (Homo sapiens) (UniProt Q02763); assay: Binding affinity to wild-type human partial length TIE2 (N804 to T1112 residues) expressed in bacterial expression system assessed as residual binding level at 10 uM by Kinomescan method relative to control

Structure (SMILES): O=C(Nc1cc(-c2cn(CCNc3c4c(nc5ccccc35)CCCC4)nn2)ccn1)Nc1cccc2c1C1CCCCN1C2=O (racemic)
- Activity [1]: 100%
- Activity [2]: 100%
- Activity [3]: 82%
- Activity [4]: 100%
- Activity [5]: 0.15%
- Activity [6]: 16%
- Activity [7]: 72%
- Activity [8]: 15%
- Activity [9]: 100%
- Activity [10]: 1.8%
- Activity [11]: 24%
- Activity [12]: 72%
- Activity [13]: 0%
- Activity [14]: 43%
- Activity [15]: 50%
- Activity [16]: 8.6%
- Activity [17]: 13%
- Activity [18]: 100%
- Activity [19]: 1%
- Activity [20]: 6.7%
- Activity [21]: 37%
- Activity [22]: 62%
- Activity [23]: 87%
- Activity [24]: 77%
